Measurements: patent publication US7501430B2 (ArQule, Inc., priority 2006, dated 2009)

What follows are compounds tested against T1, mutant B-RAF (Homo sapiens, UniProt P15056, V600E) (assay: RAF biochemical assay (MEK-1 phosphorylation, anti-phospho MEK1/2 detection)). Conditions: not given.
T1 construct: purchased Upstate (Charlottesville, Va.)
Outline: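 Detection is by ELISA: after a 30 min room-temperature reaction, plate-captured GST-MEK-1 is probed with anti-phospho MEK1/2, then an AP-tagged secondary antibody with fluorescent Attophos read-out.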

T1 sequence (P15056 whole entry V600E): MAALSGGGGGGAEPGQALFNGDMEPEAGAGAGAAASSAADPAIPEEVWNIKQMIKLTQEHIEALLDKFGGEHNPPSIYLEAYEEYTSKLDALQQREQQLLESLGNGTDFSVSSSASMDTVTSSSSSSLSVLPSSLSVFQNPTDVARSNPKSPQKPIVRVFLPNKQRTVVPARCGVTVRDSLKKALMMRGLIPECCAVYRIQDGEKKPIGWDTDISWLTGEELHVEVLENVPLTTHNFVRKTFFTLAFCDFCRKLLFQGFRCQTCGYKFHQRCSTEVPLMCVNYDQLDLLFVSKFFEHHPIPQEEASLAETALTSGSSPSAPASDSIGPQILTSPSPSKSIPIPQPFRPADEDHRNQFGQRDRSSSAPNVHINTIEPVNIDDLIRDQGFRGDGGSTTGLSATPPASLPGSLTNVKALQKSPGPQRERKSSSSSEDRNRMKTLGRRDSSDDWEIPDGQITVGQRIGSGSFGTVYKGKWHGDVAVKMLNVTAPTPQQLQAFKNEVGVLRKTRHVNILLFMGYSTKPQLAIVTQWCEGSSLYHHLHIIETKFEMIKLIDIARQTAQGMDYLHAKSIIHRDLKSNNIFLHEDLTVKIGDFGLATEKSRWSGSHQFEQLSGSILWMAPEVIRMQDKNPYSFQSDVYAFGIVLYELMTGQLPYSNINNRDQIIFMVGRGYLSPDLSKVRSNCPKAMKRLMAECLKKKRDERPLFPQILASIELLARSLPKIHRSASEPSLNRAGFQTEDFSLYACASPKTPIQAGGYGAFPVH

| Structure (SMILES) | IC50 [µM] |
| --- | --- |
| CCC(=O)N1CCC[C@@H](Nc2nccc(-c3c(-c4ccc(F)cc4)nc4occn34)n2)C1 [Example 34, 4-[6-(4-fluorophenyl)imi-dazo[2,1-b][1,3]oxazol-5-yl]-N-[(3R)-1-propionylpiperidin-3-yl]pyrimidin-2-amine] | 1.58 |
| O=C(CCc1ccccc1)N1CCC[C@@H](Nc2nccc(-c3c(-c4ccc(F)cc4)nc4occn34)n2)C1 [Example 38, 4-[6-(4-fluorophenyl)imi-dazo[2,1-b][1,3]oxazol-5-yl]-N-[(3R)-1-(3-phenylpro-panoyl)piperidin-3-yl]pyr-imidin-2-amine] | 2.9 |
| CC(C)c1ccc(S(=O)(=O)N2CCC[C@@H](Nc3nccc(-c4c(-c5ccc(F)cc5)nc5occn45)n3)C2)cc1 [Example 48, 4-[6-(4-fluorophenyl)imi-dazo[2,1-b][1,3]oxazol-5-yl]-N-{(3R)-1-[(4-isopropyl-phenyl)sulfonyl]piperidin-3-yl}pyrimidin-2-amine] | 3.02 |

Same assay, conditions: @ 3 uM

| Structure (SMILES) | inhibition at 3 µM [%] |
| --- | --- |
| O=S(=O)(c1ccc(Cl)cc1)N1CCC[C@@H](Nc2nccc(-c3c(-c4ccc(F)c(F)c4)nc4sccn34)n2)C1 [Example 114, N-{(3R)-1-[(4-chlorophenyl)sulfonyl]piperidin-3-yl}-4-[6-(3,4-difluorophenyl)imidazo[2,1-b][1,3]thiazol-5-yl]pyrimidin-2-amine] | 48 |

Same assay, conditions: @ 10 uM; read-out: Mutant B-RAF % inhibition

| inhibition at 10 µM [%] | Structure (SMILES) |
| --- | --- |
| 38 | Cc1cn2c(-c3ccnc(NC4CCN(C(=O)Nc5ccc(N(C)C)cc5)CC4)n3)c(-c3ccc(F)cc3)nc2s1 [Example 225, N-[4-(dimethylamino)phenyl]-4-({4-[6-(4-fluorophenyl)-2-methylimidazo[2,1-b][1,3]thiazol-5-yl]pyrimidin-2-yl}amino)piperidine-1-carboxamide] |
| 44 | N#Cc1ccc(S(=O)(=O)N2CCC(Nc3nccc(-c4c(-c5ccc(F)cc5)nc5occn45)n3)CC2)cc1 [Example 240, 4-{[4-({4-[6-(4-fluorophenyl)imidazo[2,1-b][1,3]oxazol-5-yl]pyrimidin-2-yl}amino)piperidin-1-yl]sulfonyl}benzonitrile] |
| 56 | CCN(C)C(=O)N1CCC(Nc2nccc(-c3c(-c4ccc(F)cc4)nc4sccn34)n2)CC1 [Example 232, N-ethyl-4-({4-[6-(4-fluorophenyl)imidazo[2,1-b][1,3]thiazol-5-yl]pyrimidin-2-yl}amino)-N-methylpiperidine-1-carboxamide] |
| 16 | Cc1cc(NC(=O)N2CCC(Nc3nccc(-c4c(-c5ccc(F)cc5)nc5occn45)n3)CC2)c(C(F)(F)F)o1 [Example 186, 4-({4-[6-(4-fluorophenyl)imidazo[2,1-b][1,3]oxazol-5-yl]pyrimidin-2-yl}amino)-N-[5-methyl-2-(trifluoromethyl)-3-furyl]piperidine-1-carboxamide] |
| 53 | C[C@@H](NC(=O)N1CCC[C@@H](Nc2nccc(-c3c(-c4ccc(F)cc4)nc4occn34)n2)C1)c1ccccc1 [Example 72, (3R)-3-({4-[6-(4-fluorophenyl)imidazo[2,1-b][1,3]oxazol-5-yl]pyrimidin-2-yl}amino)-N-[(1R)-1-phenylethyl]piperidine-1-carboxamide] |
| 42 | Cc1nc(C)c(S(=O)(=O)N2CCC[C@@H](Nc3nccc(-c4c(-c5ccc(F)cc5)nc5occn45)n3)C2)s1 [Example 65, N-{(3R)-1-[(2,4-dimethyl-1,3-thiazol-5-yl)sulfonyl]piper-idin-3-yl}-4-[6-(4-fluorophenyl)imidazo[2,1-b][1,3]oxazol-5-yl]pyrimidin-2-amine] |

Second part, the compound before the results:

| Structure (SMILES) | inhibition at 10 µM [%] |
| --- | --- |
| COc1cccc(-c2nc3sccn3c2-c2ccnc(N[C@H]3CCCNC3)n2)c1 [Example 137, 4-[6-(3-methoxyphenyl)imidazo[2,1-b][1,3]thiazol-5-yl]-N-[(3S)-piperidin-3-yl]pyrimidin-2-amine] | 42 |
| N#Cc1cccc(-c2nc3sccn3c2-c2ccnc(N[C@@H]3CCNC3)n2)c1 [Example 284, 3-(5-{2-[(3R)-pyrrolidin-3-ylamino]pyrimidin-4-yl}imidazo[2,1-b][1,3]thiazol-6-yl)benzonitrile] | 61 |
| COc1cccc(-c2nc3sccn3c2-c2ccnc(N[C@@H]3CCCN(C(=O)NCc4ccccc4)C3)n2)c1 [Example 80, (3R)-N-benzyl-3-({4-[6-(3-methoxyphenyl)imidazo[2,1-b][1,3]thiazol-5-yl]pyrimidin-2-yl}amino)piperidine-1-carboxamide] | 40 |
| N#Cc1cccc(-c2nc3sccn3c2-c2ccnc(NC3CCNCC3)n2)c1 [Example 271, 3-{5-[2-(piperidin-4-ylamino)pyrimidin-4-yl]imidazo[2,1-b][1,3]thiazol-6-yl}benzonitrile] | 58 |
| Fc1ccc(CN2CCCC(Nc3nccc(-c4c(-c5ccc(F)cc5)nc5sccn45)n3)C2)cc1 (stereo not shown) [Example 4] | 55 |

Same assay, conditions: read-out: Mutant B-RAF % inhibition

| Structure (SMILES) | inhibition at 10 µM [%] |
| --- | --- |
| O=S(=O)(c1ccc(OC(F)(F)F)cc1)N1CCC[C@@H](Nc2nccc(-c3c(-c4ccc(F)cc4)nc4occn34)n2)C1 [Example 49, 4-[6-(4-fluorophenyl)imi-dazo[2,1-b][1,3]oxazol-5-yl]-N-((3R)-1-{(4-(trifluoro-methoxy)phenyl]sulfonyl}piperidin-3-yl)pyrimidin-2-amine] | 32 |

Same assay, conditions: read-out: Mutant B-RAF IC50

| IC50 [µM] | Structure (SMILES) |
| --- | --- |
| 0.189 | O=C(NCc1ccccc1)N1CCC(Nc2nccc(-c3c(-c4ccc(F)cc4)nc4occn34)n2)CC1 [Example 170, N-benzyl-4-({4-[6-(4-fluorophenyl)imidazo[2,1-b][1,3]oxazol-5-yl]pyrimidin-2-yl}amino)piperidine-1-carboxamide] |
| 0.041 | CCNC(=O)N1CCC(Nc2nccc(-c3c(-c4ccc(F)cc4)nc4sccn34)n2)CC1 [Example 294, N-ethyl-4-({4-[6-(4-fluorophenyl)imidazo[2,1-b][1,3]thiazol-5-yl]pyrimidin-2-yl}amino)piperidine-1-carboxamide] |
| 2.7 | O=C(c1ccc(F)cc1)N1CCC(Nc2nccc(-c3c(-c4ccc(F)cc4)nc4occn34)n2)CC1 [Example 181, N-[1-(4-fluorobenzoyl)piperidin-4-yl]-4-[6-(4-fluorophenyl)imidazo[2,1-b][1,3]oxazol-5-yl]pyrimidin-2-amine] |
| 1.94 | O=C(CCc1ccccc1)N1CCC(Nc2nccc(-c3c(-c4ccc(F)cc4)nc4occn34)n2)CC1 [Example 189, 4-[6-(4-fluorophenyl)imidazo[2,1-b][1,3]oxazol-5-yl]-N-[1-(3-phenylpropanoyl)piperidin-4-yl]pyrimidin-2-amine] |
| > 10 | COc1cccc(-c2nc3occn3c2-c2ccnc(N[C@@H]3CCCNC3)n2)c1 [Example 115, 4-[6-(3-methoxyphenyl)imidazo[2,1-b][1,3]oxazol-5-yl]-N-[(3R)-piperidin-3-yl]pyrimidin-2-amine] |
| 0.931 | Cc1nc(S(=O)(=O)N2CCC(Nc3nccc(-c4c(-c5ccc(F)cc5)nc5occn45)n3)CC2)cn1C [Example 248, N-{1-[(1,2-dimethyl-1H-imidazol-4-yl)sulfonyl]piperidin-4-yl}-4-[6-(4-fluorophenyl)imidazo[2,1-b][1,3]oxazol-5-yl]pyrimidin-2-amine] |
| 1.5 | CCC(=O)N1CCC(Nc2nccc(-c3c(-c4ccc(F)cc4)nc4occn34)n2)CC1 [Example 188, 4-[6-(4-fluorophenyl)imidazo[2,1-b][1,3]oxazol-5-yl]-N-(1-propionylpiperidin-4-yl)pyrimidin-2-amine] |

The next lines start with the compound.

| Structure (SMILES) | IC50 [µM] |
| --- | --- |
| O=C(O)c1cccc(-c2nc3sccn3c2-c2ccnc(N[C@@H]3CCCN(S(=O)(=O)c4ccc(Cl)cc4)C3)n2)c1 [Example 382, 3-{5-[2-({(3R)-1-[(4-chlorophenyl)sulfonyl]piperidin-3-yl}amino)pyrimidin-4-yl]imidazo[2,1-b][1,3]thiazol-6-yl}benzoic acid] | 1.19 |
| N#Cc1cccc(-c2nc3sccn3c2-c2ccnc(N[C@@H]3CCCN(S(=O)(=O)c4ccc(C(=O)O)cc4)C3)n2)c1 [Example 129] | > 3 |
| O=S(=O)(c1ccc(Cl)cc1)N1CCC[C@@H](Nc2nccc(-c3c(-c4cccc(CO)c4)nc4sccn34)n2)C1 [Example 396, (3-{5-[2-({(3R)-1-[(4-chlorophenyl)sulfonyl]piperidin-3-yl}amino)pyrimidin-4-yl]imidazo[2,1-b][1,3]thiazol-6-yl}phenyl)methanol] | 1.6 |
| NC(=O)c1ccc(-c2nc3sccn3c2-c2ccnc(N[C@@H]3CCCN(S(=O)(=O)c4ccc(Cl)cc4)C3)n2)cc1 [Example 379, 4-{5-[2-({(3R)-1-[(4-chlorophenyl)sulfonyl]piperidin-3-yl}amino)pyrimidin-4-yl]imidazo[2,1-b][1,3]thiazol-6-yl}benzamide] | 2.67 |
| O=S(=O)(c1ccccc1)N1CCC[C@@H](Nc2nccc(-c3c(-c4cccc(O)c4)nc4sccn34)n2)C1 [Example 372, 3-[5-(2-{[(3R)-1-(phenylsulfonyl)piperidin-3-yl]amino}pyrimidin-4-yl)imidazo[2,1-b][1,3]thiazol-6-yl]phenol] | 0.003 |
| NS(=O)(=O)Oc1cccc(-c2nc3occn3c2-c2ccnc(N[C@@H]3CCCN(S(=O)(=O)c4ccc(Cl)cc4)C3)n2)c1 [Example 380, 3-{5-[2-({(3R)-1-[(4-chlorophenyl)sulfonyl]piperidin-3-yl}amino)pyrimidin-4-yl]imidazo[2,1-b][1,3]oxazol-6-yl}phenyl sulfamate] | 1.59 |
| COc1ccc(S(=O)(=O)N2CCC[C@@H](Nc3nccc(-c4c(-c5cccc(OC)c5)nc5sccn45)n3)C2)cc1 [Example 149, 4-[6-(3-methoxyphenyl)imidazo[2,1-b][1,3]thiazol-5-yl]-N-{(3R)-1-[(4-methoxyphenyl)sulfonyl]piperidin-3-yl}pyrimidin-2-amine] | 0.188 |
| Cn1cnc(S(=O)(=O)N2CCC[C@@H](Nc3nccc(-c4c(-c5cccc(O)c5)nc5sccn45)n3)C2)c1 [Example 366, 3-{5-[2-({(3R)-1-[(1-methyl-1H-imidazol-4-yl)sulfonyl]piperidin-3-yl}amino)pyrimidin-4-yl]imidazo[2,1-b][1,3]thiazol-6-yl}phenol] | 0.011 |
